Reference: patent publication US20050112075A1, “Reduction of hair growth” (priority 2003, published 2005)

System: Human hair follicles in growth phase (anagen)
Test: Human hair follicle growth assay
Type: cell-based
Conditions: for Hair follicle length increase (mm), Treated: day 0 to day 7 in culture
Protocol: Human hair Follicle Growth Assay:
Human hair follicles in growth phase (anagen) were isolated from face-lift tissue (obtained from plastic surgeons) under dissecting scope using a scalpel and watchmakers forceps. The skin was sliced into thin strips exposing 2-3 rows of follicles that could readily be dissected. Follicles were placed into 0.5 ml William's E medium (Life Technologies, Gaithersburg, Md.) supplemented with 2 mM L-glutamine, 10 μg/ml insulin, 10 ng/ml hydrocortisone, 100 units of penicillin, 0.1 mg/ml streptomycin and 0.25 μg/ml amphotericin B. The follicles were incubated in 24-well plates (1 follicle/well) at 37° C. in an atmosphere of 5% CO2 and 95% air. Compounds are dissolved into dimethyl sulfoxide as 100-fold stock solution. The control hair follicles were treated with dimethyl sulfoxide without prostaglandin. The follicles were photographed in the 24-well plates under the dissecting scope at a power of 10×. Typically, image recordings were made on day 0 (day follicles were placed in culture), and again on day 7. The length of hair follicle was assessed using an image analysis software system. The growth of hair fiber was calculated by the subtracting the follicle length on day 0 from that determined on day 7.

[1] = dose 50 μM, vs dimethyl sulfoxide control
[2] = dose 1 μM, dose-dependence study
[3] = dose 5 μM, dose-dependence study
[4] = dose 10 μM, dose-dependence study
[5] = dose 30 μM, vs dimethyl sulfoxide control

Row | SMILES | Hair follicle length increase (mm), Treated (dose 50 μM) [mm] | % Reduction of human hair follicle growth [1] [%] | % Reduction of human hair follicle growth [2] [%] | Growth of follicle (mm), Treated [2] [mm] | % Reduction of human hair follicle growth [3] [%] | Growth of follicle (mm), Treated [3] [mm] | % Reduction of human hair follicle growth [4] [%] | Growth of follicle (mm), Treated [4] [mm] | Hair follicle length increase (mm), Treated (dose 30 μM) [mm] | % Reduction of human hair follicle growth [5] [%] | further results
1 | CCCCCC=CC=C1CCC(=O)C1C/C=C\CCCC(=O)O (centres unmarked) [9,10-Dihydro-15-deoxy-^Δ12,14-PGJ2, 9,10-dihydro-15-deoxy-Δ^12,14-PGJ2] | 0.02 ± 0.03 | 98.8 ± 1.9 |  |  |  |  |  |  |  |  | 
2 | C=C1C[C@H](O)[C@H](C/C=C\CCCC(=O)O)[C@H]1/C=C/[C@@H](O)CCCCC [11-Deoxy-11-methylene PGD2] | 1.11 ± 0.14 | 36.9 ± 8.0 |  |  |  |  |  |  |  |  | 
3 | CCCCC[C@@](C)(O)/C=C/[C@H]1C(=O)C[C@H](O)[C@@H]1C/C=C\CCCC(=O)O [15(R)-15-Methyl PGD2] | 0.04 ± 0.05 | 97.5 ± 3.1 |  |  |  |  |  |  |  |  | 
4 | CCCCC[C@](C)(O)/C=C/[C@H]1C(=O)C[C@H](O)[C@@H]1C/C=C\CCCC(=O)O [15(S)-15-Methyl PGD2] |  |  |  |  |  |  |  |  |  |  | Hair follicle length increase (mm), Treated (dose 100 μM): 0.08 ± 0.06 mm; % Reduction of human hair follicle growth (dose 100 μM, vs dimethyl sulfoxide control): 92.7 ± 5.5%
5 | CCCCC/C=C/C=C1/C(=O)C[C@H](O)[C@@H]1C/C=C\CCCC(=O)O [15-Deoxy-Δ^12,14-PGD2] | 0.10 ± 0.08 | 94.3 ± 4.5 |  |  |  |  |  |  |  |  | 
6 | CCCCC/C=C/C=C1/C(=O)C=C[C@@H]1C/C=C\CCCC(=O)O [15-Deoxy-Δ^12,14-PGJ2] |  |  | 0 | 1.42 ± 0.37 | 34.8 | 0.21 ± 0.13 | 94.3 | 0.08 ± 0.07 | 0.10 ± 0.09 | 94.7 ± 5.0 | 
7 | CCCCC(C)(C)[C@H](O)/C=C/[C@H]1C(=O)C[C@H](O)[C@@H]1C/C=C\CCCC(=O)O [16,16-Dimethyl PGD2] | 0.10 ± 0.05 | 94.3 ± 2.8 |  |  |  |  |  |  |  |  | 
8 | O=C(O)CCC/C=C\C[C@H]1[C@@H](O)CC(=O)[C@@H]1/C=C/[C@@H](O)CCc1ccccc1 [17-Phenyl trinor PGD2] | 0.10 ± 0.12 | 93.8 ± 7.4 |  |  |  |  |  |  |  |  | 
9 | CCCCC[C@H](O)/C=C/[C@H]1C(=O)C[C@H](O)[C@@H]1C/C=C\CCCC(=O)O [PGD2, prostaglandin D2] |  |  | 4.4 | 1.51 ± 0.28 | 12.7 | 1.38 ± 0.30 | 38.0 | 0.98 ± 0.32 | 0.24 ± 0.10 | 87.3 ± 5.0 | Hair growth inhibition profile (dose dependence, in words): dose dependent; Reduction of human hair follicle growth (in words): significant reduction of human hair follicle growth
10 | CCCCC[C@H](O)/C=C/[C@H]1C(=O)C=C[C@@H]1C/C=C\CCCC(=O)O [PGJ2] |  |  | 9.5 | 1.43 ± 0.34 | 34.8 | 1.03 ± 0.35 | 68.4 | 0.50 ± 0.29 | 0.16 ± 0.25 | 91.5 ± 13 | Hair growth inhibition profile (dose dependence, in words): dose dependent; Reduction of human hair follicle growth (in words): reduce hair growth
11 | CCCCC[C@H](O)C/C=C1/C(=O)C=C[C@@H]1C/C=C\CCCC(=O)O [Δ^12-PGJ2] |  |  | 0.7 | 1.40 ± 0.44 | 10.6 | 1.26 ± 0.38 | 77.3 | 0.32 ± 0.15 | 0.29 ± 0.46 | 84.6 ± 24 | 
